Laboratory results taken from ChEMBL document CHEMBL5500375, “Design, synthesis, and evaluation of N1,N3-dialkyldioxonaphthoimidazoliums as antibacterial agents against methicillin-resistant Staphylococcus aureus” (Eur J Med Chem, 2024).
In brackets after ≈: the same amount, converted by molar mass. Activity calls are given as the source filed them. No cut-off for these calls is given here.

What was measured:
[1] = system: Staphylococcus aureus; assay: Antibacterial agents against methicillin-resistant Staphylococcus aureus SA3 assessed as absence of growth measured after 18 hrs by micro-dilution method; type: functional
[2] = system: Staphylococcus aureus; assay: Antibacterial agents against methicillin-resistant Staphylococcus aureus USA300 assessed as absence of growth measured after 18 hrs by micro-dilution method; type: functional
[3] = system: Staphylococcus aureus; assay: Antibacterial agents against methicillin-sensitive Staphylococcus aureus SA1 assessed as absence of growth measured after 18 hrs by micro-dilution method; type: functional
[4] = system: Staphylococcus aureus; assay: Antibacterial agents against methicillin-sensitive Staphylococcus aureus Newman assessed as absence of growth measured after 18 hrs by micro-dilution method; type: functional
[5] = system: Bacillus subtilis; assay: Antibacterial agents against Bacillus subtilis PS380 assessed as absence of growth measured after 18 hrs by micro-dilution method; type: functional
[6] = In vivo toxicity in Drosophila melanogaster strain Oregon R assessed as survival rate at 0.1 to 1 mg/ml measured upto 72 hrs relative to control; type: organism-based; details: dose 0.1-1 mg/ml; for Activity: 72 h
[7] = Metabolic stability in human liver microsomes assessed as half life at 2 uM preincubated for 5 mins followed by NADPH addition and measured for 35 mins by LC/MS analysis; type: ADME, Microsome; details: preincubation 5 min
[8] = Metabolic stability in human liver microsomes assessed as intrinsic clearance at 2 uM preincubated for 5 mins followed by NADPH addition and measured for 35 mins by LC/MS analysis; type: ADME, Microsome; details: read-out: CLH
[9] = system: Pseudomonas aeruginosa; assay: Antibacterial agents against gram negative Pseudomonas aeruginosa PA14 assessed as reduction in colony forming unit at 0.05 to 0.2 ug/ml measured upto 10 hrs by LB agar medium method; type: functional, organism-based; details: dose 0.05-0.2 µg/ml
[10] = system: Escherichia coli; assay: Antibacterial agents against gram negative Escherichia coli MG1655 assessed as reduction in colony forming unit at 0.05 to 0.2 ug/ml measured upto 10 hrs by LB agar medium method; type: functional, organism-based; details: dose 0.05-0.2 µg/ml
[11] = system: Staphylococcus aureus; assay: Antibacterial agents against c5-resistant mutant of methicillin-resistant Staphylococcus aureus SA3 m1 assessed as absence of growth measured after 18 hrs by micro-dilution method; type: functional
[12] = system: Staphylococcus aureus; assay: Antibacterial agents against c5-resistant mutant of methicillin-resistant Staphylococcus aureus SA3 m2 assessed as absence of growth measured after 18 hrs by micro-dilution method; type: functional
[13] = system: Staphylococcus aureus; assay: Antibacterial agents against c5-resistant mutant of methicillin-resistant Staphylococcus aureus SA3 m3 assessed as absence of growth measured after 18 hrs by micro-dilution method; type: functional
[14] = system: Staphylococcus aureus; assay: Antibacterial agents against c5-resistant mutant of methicillin-resistant Staphylococcus aureus SA3 m4 assessed as absence of growth measured after 18 hrs by micro-dilution method; type: functional
[15] = system: Staphylococcus aureus; assay: Induction of ROS generation in methicillin-resistant Staphylococcus aureus SA3 using hydroxyphenyl fluorescein at 0.09 ug/ml under anaerobic condition; type: functional, organism-based; details: dose 0.09 µg/ml, TDE = time-dependent effect
[16] = system: Staphylococcus aureus; assay: Induction of ROS generation in methicillin-resistant Staphylococcus aureus USA300 using hydroxyphenyl fluorescein at 0.09 ug/ml under anaerobic condition; type: functional, organism-based; details: dose 0.09 µg/ml, TDE = time-dependent effect
[17] = system: Staphylococcus aureus; assay: In vivo antibacterial activity against methicillin-resistant Staphylococcus aureus SA3 infected in dorsal thorax of Drosophila melanogaster strain Oregon R assessed as survival time of Drosophila at 0.2 mg/ml measured upto 72 hrs; type: functional
[18] = system: Staphylococcus aureus; assay: In vivo antibacterial activity against methicillin-resistant Staphylococcus aureus SA3 infected in dorsal thorax of Drosophila melanogaster strain Oregon R assessed as median survival time of Drosophila at 0.04 to 0.2 mg/ml measured upto 72 hrs; type: functional; details: dose 0.04-0.2 mg/ml
[19] = system: Staphylococcus aureus; assay: Reduction in virulent activity of methicillin-resistant Staphylococcus aureus SA3 infected in dorsal thorax of Drosophila melanogaster strain Oregon R at 0.2 mg/ml measured upto 72 hrs; type: functional, organism-based

Row | Compound | MIC [1] [µg/mL] | MIC [3] [µg/mL] | MIC [5] [µg/mL] | also measured
1 | CCCn1c2c([n+](Cc3ccco3)c1C)C(=O)c1ccccc1C2=O.[Br-] | 12.5 | – | – | –
2 | CCCCCCCCn1c2c([n+](Cc3ccco3)c1C)C(=O)c1ccccc1C2=O.[Br-] | 0.39 | 0.39 | 0.39 | MIC [2]: 0.39 µg/mL; MIC [4]: 0.39 µg/mL; Activity [6]: Toxic; half-life at 2 µM [7]: 16.1 min; CLint scaled at 2 µM [8]: 95 mL/min/kg
3 | CCCCCCCCn1c2c([n+](CCCC)c1C)C(=O)c1ccccc1C2=O.[Br-] | 0.39 | 0.39 | 0.39 | MIC [2]: 0.39 µg/mL; MIC [4]: 0.39 µg/mL; Activity [6]: Non-Toxic; half-life at 2 µM [7]: 11.6 min; CLint scaled at 2 µM [8]: 125 mL/min/kg
4 | CCCC[n+]1c2c(n(C(C)C)c1C)C(=O)c1ccccc1C2=O.[Br-] | 3.13 | – | – | –
5 | CCCn1c2c([n+](Cc3ccccc3)c1C)C(=O)c1ccccc1C2=O.[Br-] | 6.25 | – | – | –
6 | CCCCn1c2c([n+](CC3CCCCC3)c1C)C(=O)c1ccccc1C2=O.[Br-] | 3.13 | – | – | –
7 | CCCCn1c2c([n+](Cc3ccccc3)c1C)C(=O)c1ccccc1C2=O.[Br-] | 12.5 | – | – | –
8 | CCCCCCCCCn1c2c([n+](CCCC)c1C)C(=O)c1ccccc1C2=O.[Br-] | 3.13 | – | – | –
9 | Cc1n(C2CC2)c2c([n+]1Cc1ccccc1)C(=O)c1ccccc1C2=O.[Br-] | 6.25 | – | – | –
10 | CCCCCn1c2c([n+](CCCC)c1C)C(=O)c1ccccc1C2=O.[Br-] | 3.13 | – | – | –
11 | CCCCn1c2c([n+](C3CCCCC3)c1C)C(=O)c1ccccc1C2=O.[Br-] | 25 | – | – | –
12 | CCCCCCCn1c2c([n+](CCCC)c1C)C(=O)c1ccccc1C2=O.[Br-] | 0.78 | 0.78 | 0.39 | –
13 | CCCC[n+]1c2c(n(CC(C)C)c1C)C(=O)c1ccccc1C2=O.[Br-] | 3.13 | – | – | –
14 | POLYMYXIN B | – | – | – | Activity [9]: inactive; Activity [10]: inactive
15 | CCCCCn1c2c([n+](CCCCC)c1C)C(=O)c1ccccc1C2=O.[Br-] | 3.13 | – | – | –
16 | CCn1c2c([n+](Cc3ccco3)c1C)C(=O)c1ccccc1C2=O.[Br-] | 12.5 | – | – | –
17 | CCCCCCCCCCn1c2c([n+](Cc3ccccc3)c1C)C(=O)c1ccccc1C2=O.[Br-] | 0.39 | 0.39 | 1.56 | MIC [2]: 0.39 µg/mL; MIC [4]: 0.39 µg/mL; Activity [6]: Toxic; half-life at 2 µM [7]: 13.2 min; CLint scaled at 2 µM [8]: 103 mL/min/kg
18 | CCCCCCn1c2c([n+](Cc3ccccc3)c1C)C(=O)c1ccccc1C2=O.[Br-] | 0.78 | 0.78 | 0.78 | –
19 | CCCCCCCn1c2c([n+](Cc3ccccc3)c1C)C(=O)c1ccccc1C2=O.[Br-] | 0.78 | 0.39 | 0.78 | MIC [2]: 0.78 µg/mL; MIC [4]: 0.39 µg/mL; survival at 72 h ([6]; Oregon R, at 0.1 to 1 mg/mL): 75%; half-life at 2 µM [7]: 15.6 min; CLint scaled at 2 µM [8]: 101 mL/min/kg
20 | CCn1c2c([n+](Cc3ccccc3)c1C)C(=O)c1ccccc1C2=O.[Br-] | 3.13 | – | – | –
21 | CCCCCC[n+]1c2c(n(CCOC)c1C)C(=O)c1ccccc1C2=O.[Br-] | 6.25 | 6.25 | 6.25 | MIC [2]: 6.25 µg/mL; MIC [4]: 6.25 µg/mL; MIC [11]: > 50 µg/mL; MIC [12]: > 50 µg/mL; MIC [13]: > 50 µg/mL; MIC [14]: > 50 µg/mL; half-life at 2 µM [7]: 33.7 min; CLint scaled at 2 µM [8]: 37 mL/min/kg; Activity [15]: Tde; Activity [16]: Tde; Time [17]: 54 h; Time [18]: 38 h; Activity [19]: inactive
22 | Cc1n(C2CCCC2)c2c([n+]1Cc1ccccc1)C(=O)c1ccccc1C2=O.[Br-] | 12.5 | – | – | –
23 | Cc1n(CC(C)C)c2c([n+]1Cc1ccccc1)C(=O)c1ccccc1C2=O.[Br-] | 3.13 | – | – | –
24 | CN[C@H](CC(C)C)C(=O)N[C@H]1C(=O)N[C@@H](CC(N)=O)C(=O)N[C@H]2C(=O)N[C@H]3C(=O)N[C@H](C(=O)N[C@H](C(=O)O)c4cc(O)cc(O)c4-c4cc3ccc4O)[C@H](O)c3ccc(c(Cl)c3)Oc3cc2cc(c3O[C@@H]2O[C@H](CO)[C@@H](O)[C@H](O)[C@H]2O[C@H]2C[C@](C)(N)[C@H](O)[C@H](C)O2)Oc2ccc(cc2Cl)[C@H]1O [VANCOMYCIN] | 6.25 (≈ 4.31 µM) | 1.56 (≈ 1.08 µM) | 0.19 (≈ 0.131 µM) | MIC [2]: 6.25 µg/mL (≈ 4.31 µM); MIC [4]: 1.56 µg/mL (≈ 1.08 µM); Time [17]: 54 h; Time [18]: 40 h; Activity [19]: inactive

Row | Compound | MIC [1] [µg/mL] | MIC [3] [µg/mL] | MIC [5] [µg/mL] | also measured
25 | CCCCCCCCCn1c2c([n+](Cc3ccccc3)c1C)C(=O)c1ccccc1C2=O.[Br-] | 0.39 | 0.39 | 1.56 | MIC [2]: 0.39 µg/mL; MIC [4]: 0.39 µg/mL; Activity [6]: Toxic; half-life at 2 µM [7]: 51.8 min; CLint scaled at 2 µM [8]: 26 mL/min/kg
26 | CCCCCCCn1c2c([n+](CCCCCCC)c1C)C(=O)c1ccccc1C2=O.[Br-] | 0.39 | 0.39 | 0.39 | MIC [2]: 0.39 µg/mL; MIC [4]: 0.39 µg/mL; Activity [6]: Non-Toxic; half-life at 2 µM [7]: 17.4 min; CLint scaled at 2 µM [8]: 77 mL/min/kg
27 | Cc1n(C2CCCCC2)c2c([n+]1Cc1ccccc1)C(=O)c1ccccc1C2=O.[Br-] | 1.56 | 0.78 | 1.56 | –
28 | Cc1n(C2CCC2)c2c([n+]1Cc1ccccc1)C(=O)c1ccccc1C2=O.[Br-] | 3.13 | – | – | –
29 | CCCCCCn1c2c([n+](Cc3ccco3)c1C)C(=O)c1ccccc1C2=O.[Br-] | 0.78 | 0.78 | 3.13 | –
30 | CCCCCC[n+]1c2c(n(CCCC)c1C)C(=O)c1ccccc1C2=O.[Br-] | 3.13 | – | – | –
31 | CCCCCCCCn1c2c([n+](CCCCCCCC)c1C)C(=O)c1ccccc1C2=O.[Br-] | 3.13 | – | – | –
32 | CCCCCn1c2c([n+](Cc3ccco3)c1C)C(=O)c1ccccc1C2=O.[Br-] | 3.13 | – | – | –
33 | CCCCn1c2c([n+](Cc3ccco3)c1C)C(=O)c1ccccc1C2=O.[Br-] | 6.25 | – | – | –
34 | CCCC[n+]1c2c(n(C3CCC3)c1C)C(=O)c1ccccc1C2=O.[Br-] | 25 | – | – | –
35 | CCCC[n+]1c2c(n(C(C)(C)C)c1C)C(=O)c1ccccc1C2=O.[Br-] | 6.25 | – | – | –
36 | Cc1n(CC2CC2)c2c([n+]1Cc1ccccc1)C(=O)c1ccccc1C2=O.[Br-] | 1.56 | 0.78 | 1.56 | –
37 | Cc1n(C(C)(C)C)c2c([n+]1Cc1ccccc1)C(=O)c1ccccc1C2=O.[Br-] | 3.13 | – | – | –
38 | CCCCCCCn1c2c([n+](Cc3ccco3)c1C)C(=O)c1ccccc1C2=O.[Br-] | 0.78 | 0.78 | 0.78 | MIC [2]: 0.78 µg/mL; MIC [4]: 0.78 µg/mL; Activity [6]: Non-Toxic; half-life at 2 µM [7]: 55.1 min; CLint scaled at 2 µM [8]: 24 mL/min/kg
39 | Cc1n(C(C)C)c2c([n+]1Cc1ccccc1)C(=O)c1ccccc1C2=O.[Br-] | 3.13 | – | – | –
40 | CCCCCn1c2c([n+](Cc3ccccc3)c1C)C(=O)c1ccccc1C2=O.[Br-] | 1.56 | 3.13 | 6.25 | –
41 | Cc1n(CC2CCCCC2)c2c([n+]1Cc1ccccc1)C(=O)c1ccccc1C2=O.[Br-] | 1.56 | 1.56 | 0.78 | –
42 | CCCCCCCCCCn1c2c([n+](CCCC)c1C)C(=O)c1ccccc1C2=O.[Br-] | 3.13 | – | – | –
43 | Cc1n(Cc2ccco2)c2c([n+]1Cc1ccccc1)C(=O)c1ccccc1C2=O.[Br-] | 6.25 | – | – | –
44 | CCCC[n+]1c2c(n(CC3CC3)c1C)C(=O)c1ccccc1C2=O.[Br-] | 12.5 | – | – | –
45 | CCCCCCn1c2c([n+](CCCCCC)c1C)C(=O)c1ccccc1C2=O.[Br-] | 0.78 | 0.78 | 1.56 | MIC [2]: 0.78 µg/mL; MIC [4]: 0.78 µg/mL
46 | Cc1n(C2CCCCCC2)c2c([n+]1Cc1ccccc1)C(=O)c1ccccc1C2=O.[Br-] | 6.25 | – | – | –
47 | COCC[n+]1c2c(n(Cc3cnccn3)c1C)C(=O)c1ccccc1C2=O.[Br-] [SEPANTRONIUM BROMIDE] | 50 | – | – | –
